In the supplement of paper PMC11208160:

Experiment: recombinant barcode read abundance after kanamycin selection (control-corrected) (log10(CPM+1)); higher = more efficient recombination; sequences stand for … in AGTGCAGAGAAAATCGGCCAGTTTTCTCTGCCTGCAGTCCGCATGCCGT…AGATTTATGCAGCGGACTGCCTTTCTCCCAAAGTGATAAACCGGACAGTATCATGGACCGGTTTTCCCGGTAATCCGTATTTGCAAGGTTGGTTTCACT; site = the 11-nt target
How it was run: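 Pooled E. coli screen pairing targets with IS621 bridge RNA target-binding loops. Each oligo (promoter, target, barcode, J23119-driven first 104 bridge RNA bases) was Gibson-cloned into a vector with the remaining 73 bp and T7-inducible recombinase, then co-electroporated with a donor plasmid. Two replicates each were plated on chloramphenicol/ampicillin LB agar (control) or chloramphenicol/ampicillin/kanamycin with 0.1 mM IPTG. Recombination efficiency is recombinant-junction barcode counts as CPM, averaged, control-corrected, reported as log10(CPM+1).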
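Further: IS621 recombinase and bridge RNA in Escherichia coli cells.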

Sequence	recombinant barcode read abundance (log10)
TCCAAACCTTGGGTTCTAACCTGTTGCAG (site TCCAATCCTCT)	0.0156
TCCAGTCCTTGGGTTCTAACCTGTTGCTG (site AGCAGTCCTCA)	0.0888
TCCAGTCCTTGGGTTCTAACCTGTTGCTG (site TCCAGTCCTCA)	0.285
TCCCAAGCTTGGGTTCTAACCTGTTGCTA (site TCCAAAGCTTA)	0.589
TCCCAAGCTTGGGTTCTAACCTGTTGCTA (site TCCCAAGCTTA)	1.32
TCCCAAGCTTGGGTTCTAACCTGTTGCTA (site TCCGAAGCTTA)	0.0505
TCCCAAGCTTGGGTTCTAACCTGTTGCTA (site TCCTAAGCTTA)	0.141
TCCCGACCTTGGGTTCTAACCTGTTGCCT (site TCCCGAACTAG)	0.135
TCCCGACCTTGGGTTCTAACCTGTTGCCT (site TCCCGACCTAG)	1.72
TCCCGACCTTGGGTTCTAACCTGTTGCCT (site TCCCGAGCTAG)	0.107
TCCCGACCTTGGGTTCTAACCTGTTGCCT (site TCCCGATCTAG)	0.0793
TCCCGCCCTTGGGTTCTAACCTGTTGCCT (site GCACGCCCTAG)	0.0125
TCCCGCCCTTGGGTTCTAACCTGTTGCCT (site TCCCGCCCTAG)	0.464
TCCCGGACTTGGGTTCTAACCTGTTGCCT (site TCACGGACTAG)	0.212
TCCCGGACTTGGGTTCTAACCTGTTGCCT (site TCCCGGACTAG)	0.892
TCCCGGACTTGGGTTCTAACCTGTTGCCT (site TCGCGGACTAG)	0
TCCCGGACTTGGGTTCTAACCTGTTGCCT (site TCTCGGACTAG)	0.1
TCCGAAGCTTGGGTTCTAACCTGTTGCTA (site TCCAAAGCTTA)	0.0181

Sequence	recombinant barcode read abundance (log10)
TCCGAAGCTTGGGTTCTAACCTGTTGCTA (site TCCCAAGCTTA)	0.264
TCCGAAGCTTGGGTTCTAACCTGTTGCTA (site TCCGAAGCTTA)	0.29
TCCGAAGCTTGGGTTCTAACCTGTTGCTA (site TCCTAAGCTTA)	0.0103
TCCGAGACTTGGGTTCTAACCTGTTGCCT (site TCCGAGACTAG)	1.4
TCCGAGACTTGGGTTCTAACCTGTTGCCT (site TCCGAGACTCG)	0.048
TCCGAGACTTGGGTTCTAACCTGTTGCCT (site TCCGAGACTGG)	0.267
TCCGAGACTTGGGTTCTAACCTGTTGCCT (site TCCGAGACTTG)	0.157
TCCGGAGCTTGGGTTCTAACCTGTTGCCG (site GTGAACCCTTT)	0.0406
TCCGGAGCTTGGGTTCTAACCTGTTGCCG (site TCCGGAGCTCG)	0.652
TCCGGTTCTTGGGTTCTAACCTGTTGCCT (site ACGGGTTCTAG)	0.0897
TCCGGTTCTTGGGTTCTAACCTGTTGCCT (site TCCGGTTCTAG)	0.965
TCCGTGGCTTGGGTTCTAACCTGTTGCCT (site TCCGTGACTAG)	0.121
TCCGTGGCTTGGGTTCTAACCTGTTGCCT (site TCCGTGCCTAG)	0.261
TCCGTGGCTTGGGTTCTAACCTGTTGCCT (site TCCGTGGCTAG)	0.916
TCCGTGGCTTGGGTTCTAACCTGTTGCCT (site TCCGTGTCTAG)	0.244
TCCGTGTCTTGGGTTCTAACCTGTTGCCT (site TCCGTGACTAG)	0.0308
TCCGTGTCTTGGGTTCTAACCTGTTGCCT (site TCCGTGCCTAG)	0.241
TCCGTGTCTTGGGTTCTAACCTGTTGCCT (site TCCGTGGCTAG)	0.0597
